For orientation: IC50 means the concentration that gives 50% inhibition.

The experiment has as its target Mammalian DNA-PK (Homo sapiens, UniProt P78527). Briefly: DNA-PK inhibition assay (ELISA of p53 Ser15 phosphorylation of GST-p53N66). In kind it is biochemical, Mammalian (isolated from HeLa cell nuclear extract). The note with it: DNA-PK from HeLa nuclear extract; mean value; read-out: mean IC50. As to the method:
In order to assess the inhibitory action of the compounds against DNA-PK in vitro, the following assay was used to determine IC50 values.
To the assay mix, varying concentrations of inhibitor (in DMSO at a final concentration of 1%) were added. After 10 minutes of incubation, ATP was added to give a final concentration of […] along with a 30 mer double stranded DNA oligonucleotide (final concentraion of 0.5 ng/ml) to initiate the reaction. After 1 hour with shaking, 150 μl of phosphate buffered saline (PBS) was added to the reaction and 5 μl then transferred to a 96 well opaque white plate containing 45 μl of PBS per well where the GSTp53N66 substrate was allowed to bind to the wells for 1 hour. To detect the phosphorylation event on the serine 15 residue of p53 elicited by DNA-PK a p53 phosphoserine-15 antibody (Cell Signaling Technology) was used in a basic ELISA procedure. An anti-rabbit HRP conjugated secondary antibody (Pierce) was then employed in the ELISA before the addition of chemiluminescence reagent. (NEN Renaissance) to detect the signal as measured by chemiluminescent counting via a TopCount NXT (Packard).
The enzyme activity for each compound is then calculated using the following equation: […]
The results are discussed below as IC50 values (the concentration at which 50% of the enzyme activity is inhibited). These are determined over a range of different concentrations, normally from 10 μM down to 0.001 μM. Such IC50 values are used as comparative values to identify increased compound potencies.
For the molecule `O=c1cc(N2CCOCC2)oc2c(-c3ccc(CNCC4CCCO4)c4c3sc3ccccc34)cccc12` (stereo not shown) [4a], the IC50 was 31.2 nM.

Regarding `CC(C)N1CCN(Cc2ccc(-c3cccc4c(=O)cc(N5CCOCC5)oc34)c3sc4ccccc4c23)CC1` [4aa], the IC50 was 1.75 nM.

On to `O=c1cc(N2CCOCC2)oc2c(-c3ccc(CN4CCN(CCO)CC4)c4c3sc3ccccc34)cccc12` [4ab], for which the IC50 came to 1.39 nM.

Take `CN(CC(=O)O)Cc1ccc(-c2cccc3c(=O)cc(N4CCOCC4)oc23)c2sc3ccccc3c12` [4ac]: the IC50 worked out at 238 nM.

Regarding `O=c1cc(N2CCOCC2)oc2c(-c3ccc(CN4CCCN(CCO)CC4)c4c3sc3ccccc34)cccc12` [4ad], the IC50 stood at 3.86 nM.

For the molecule `CN(C)C1CCN(Cc2ccc(-c3cccc4c(=O)cc(N5CCOCC5)oc34)c3sc4ccccc4c23)CC1` [4ae], the IC50 amounted to 177 nM.

On to `COC1CCCN(Cc2ccc(-c3cccc4c(=O)cc(N5CCOCC5)oc34)c3sc4ccccc4c23)C1` (stereo not shown) [4af], for which the IC50 stood at 232 nM.

Regarding `O=C(C1CC1)N1CCN(Cc2ccc(-c3cccc4c(=O)cc(N5CCOCC5)oc34)c3sc4ccccc4c23)CC1` [4ag], the IC50 is 251 nM.

Consider `CN(C)C1CCN(Cc2ccc(-c3cccc4c(=O)cc(N5CCOCC5)oc34)c3sc4ccccc4c23)C1` (stereo not shown) [4ah], for which the IC50 stood at 1.21 nM.

Consider `O=c1cc(N2CCOCC2)oc2c(-c3ccc(CN4CCOCC4)c4c3sc3ccccc34)cccc12` [4ai], for which the IC50 stood at 102 nM.

With `C[C@H]1COCCN1Cc1ccc(-c2cccc3c(=O)cc(N4CCOCC4)oc23)c2sc3ccccc3c12` [4aj], the IC50 was 406 nM.

Turning to `C[C@@H]1COCCN1Cc1ccc(-c2cccc3c(=O)cc(N4CCOCC4)oc23)c2sc3ccccc3c12` [4ak], the 50% inhibitory concentration (IC50) is 912 nM.

`O=c1cc(N2CCOCC2)oc2c(-c3ccc(CN4CCOC(CO)C4)c4c3sc3ccccc34)cccc12` (stereo not shown) [4al]: the IC50 stood at 72.5 nM.

Regarding `COC1CCN(Cc2ccc(-c3cccc4c(=O)cc(N5CCOCC5)oc34)c3sc4ccccc4c23)CC1` [4am], the IC50 came out at 415 nM.

Take `CC1CC(C)CN(Cc2ccc(-c3cccc4c(=O)cc(N5CCOCC5)oc34)c3sc4ccccc4c23)C1` (stereo not shown) [4an]: the IC50 was 1520 nM.

With `O=c1cc(N2CCOCC2)oc2c(-c3ccc(CN4CCC(C(F)(F)F)CC4)c4c3sc3ccccc34)cccc12` [4ao], the IC50 is 5430 nM.

Take `O=c1cc(N2CCOCC2)oc2c(-c3ccc(CN4CCCC(C(F)(F)F)C4)c4c3sc3ccccc34)cccc12` (stereo not shown) [4ap]: the IC50 stood at 2140 nM.

Turning to `CCN1CCN(Cc2ccc(-c3cccc4c(=O)cc(N5CCOCC5)oc34)c3sc4ccccc4c23)CC1` [4aq], the IC50 is 5.59 nM.

As to `N#CCNCc1ccc(-c2cccc3c(=O)cc(N4CCOCC4)oc23)c2sc3ccccc3c12` [4ar], the IC50 was 29.7 nM.

As to `O=c1cc(N2CCOCC2)oc2c(-c3ccc(CN4CCCO4)c4c3sc3ccccc34)cccc12` [4as], the half-inhibitory concentration (IC50) is 68.9 nM.

Turning to `COCC1CCCN1Cc1ccc(-c2cccc3c(=O)cc(N4CCOCC4)oc23)c2sc3ccccc3c12` (stereo not shown) [4at], the IC50 amounted to 884 nM.

Take `CN(C)C1CCCN(Cc2ccc(-c3cccc4c(=O)cc(N5CCOCC5)oc34)c3sc4ccccc4c23)C1` (stereo not shown) [4au]: the IC50 came out at 19.8 nM.

For `CN1CCCC1CCNCc1ccc(-c2cccc3c(=O)cc(N4CCOCC4)oc23)c2sc3ccccc3c12` (stereo not shown) [4av], the IC50 was 48.6 nM.

As for `O=c1cc(N2CCOCC2)oc2c(-c3ccc(CNCCc4ccccn4)c4c3sc3ccccc34)cccc12` [4aw], the IC50 is 69.6 nM.

With `O=c1cc(N2CCOCC2)oc2c(-c3ccc(CNCCCn4ccnc4)c4c3sc3ccccc34)cccc12` [4ax], the IC50 turned out to be 26.5 nM.

Regarding `CN(C)CC(C)(C)CNCc1ccc(-c2cccc3c(=O)cc(N4CCOCC4)oc23)c2sc3ccccc3c12` [4ay], the IC50 is 122 nM.

For the molecule `O=c1cc(N2CCOCC2)oc2c(-c3ccc(CN4CCCC(F)(F)C4)c4c3sc3ccccc34)cccc12` [4az], the IC50 was determined as 2020 nM.

Regarding `O=c1cc(N2CCOCC2)oc2c(-c3ccc(CNCc4ccccc4)c4c3sc3ccccc34)cccc12` [4b], the IC50 stood at 248 nM.

Take `O=c1cc(N2CCOCC2)oc2c(-c3ccc(CNCCCN4CCCC4)c4c3sc3ccccc34)cccc12` [4ba]: the IC50 was determined as 17.3 nM.

On to `CC(NCc1ccc(-c2cccc3c(=O)cc(N4CCOCC4)oc23)c2sc3ccccc3c12)c1nccs1` (stereo not shown) [4bb], for which the IC50 stood at 777 nM.

As to `CN1CCCCC1CNCc1ccc(-c2cccc3c(=O)cc(N4CCOCC4)oc23)c2sc3ccccc3c12` (stereo not shown) [4bc], the IC50 came to 10.5 nM.

Consider `O=c1cc(N2CCOCC2)oc2c(-c3ccc(CNC4CCS(=O)(=O)C4)c4c3sc3ccccc34)cccc12` (stereo not shown) [4bd], for which the IC50 is 125 nM.

Consider `O=c1cc(N2CCOCC2)oc2c(-c3ccc(CNCc4cc[nH]n4)c4c3sc3ccccc34)cccc12` [4be], for which the IC50 came to 91.7 nM.

On to `COC[C@H]1CCCN1Cc1ccc(-c2cccc3c(=O)cc(N4CCOCC4)oc23)c2sc3ccccc3c12` [4bf], for which the IC50 came out at 717 nM.

Take `Cc1cc(NCc2ccc(-c3cccc4c(=O)cc(N5CCOCC5)oc34)c3sc4ccccc4c23)on1` [4bg]: the half-inhibitory concentration (IC50) stood at 299 nM.

Take `O=c1cc(N2CCOCC2)oc2c(-c3ccc(CNCc4ccco4)c4c3sc3ccccc34)cccc12` [4bh]: the IC50 was 222 nM.

Regarding `Cc1n[nH]c(NCc2ccc(-c3cccc4c(=O)cc(N5CCOCC5)oc34)c3sc4ccccc4c23)n1` [4bi], the IC50 is 92.9 nM.

`CC(CN(C)C)NCc1ccc(-c2cccc3c(=O)cc(N4CCOCC4)oc23)c2sc3ccccc3c12` (stereo not shown) [4bk]: the IC50 came out at 32 nM.

For the molecule `Cn1nccc1CNCc1ccc(-c2cccc3c(=O)cc(N4CCOCC4)oc23)c2sc3ccccc3c12` [4bl], the IC50 turned out to be 46.2 nM.

As for `N[C@@H]1CCCC[C@@H]1NCc1ccc(-c2cccc3c(=O)cc(N4CCOCC4)oc23)c2sc3ccccc3c12` [4bn], the concentration for half-maximal inhibition (IC50) is 115 nM.

For `O=c1cc(N2CCOCC2)oc2c(-c3ccc(CN4CCCCO4)c4c3sc3ccccc34)cccc12` [4bo], the IC50 is 2070 nM.

As to `O=c1cc(N2CCOCC2)oc2c(-c3ccc(CN4CC[C@@H](F)C4)c4c3sc3ccccc34)cccc12` [4bp], the IC50 was determined as 170 nM.

As to `O=c1cc(N2CCOCC2)oc2c(-c3ccc(CN4CCSC4)c4c3sc3ccccc34)cccc12` [4bq], the IC50 is 433 nM.

Take `O=c1cc(N2CCOCC2)oc2c(-c3ccc(CN4CCC[C@@H]4CO)c4c3sc3ccccc34)cccc12` [4bt]: the IC50 was 174 nM.

As for `CN(C)[C@H]1CCN(Cc2ccc(-c3cccc4c(=O)cc(N5CCOCC5)oc34)c3sc4ccccc4c23)C1` [4bu], the 50% inhibitory concentration (IC50) is 1.32 nM.

For `CN(C)[C@@H]1CCN(Cc2ccc(-c3cccc4c(=O)cc(N5CCOCC5)oc34)c3sc4ccccc4c23)C1` [4bv], the IC50 was 2.05 nM.

With `O=c1cc(N2CCOCC2)oc2c(-c3ccc(CN4CC[C@H](F)C4)c4c3sc3ccccc34)cccc12` [4bw], the IC50 worked out at 438 nM.

Take `O=c1cc(N2CCOCC2)oc2c(-c3ccc(CN4CCC[C@H]4CO)c4c3sc3ccccc34)cccc12` [4by]: the IC50 came to 98.6 nM.

As to `O=c1cc(N2CCOCC2)oc2c(-c3ccc(CN4CCSCC4)c4c3sc3ccccc34)cccc12` [4bz], the half-maximal inhibitory concentration (IC50) amounted to 257 nM.

As for `O=c1cc(N2CCOCC2)oc2c(-c3ccc(CNCCO)c4c3sc3ccccc34)cccc12` [4c], the IC50 was 22.6 nM.

With `O=c1cc(N2CCOCC2)oc2c(-c3ccc(CN4CCC(F)(F)C4)c4c3sc3ccccc34)cccc12` [4ca], the IC50 was determined as 1010 nM.

Regarding `CC1CN(Cc2ccc(-c3cccc4c(=O)cc(N5CCOCC5)oc34)c3sc4ccccc4c23)CCN1C` (stereo not shown) [4cb], the half-maximal inhibitory concentration (IC50) was 3.74 nM.

For the origin of these results see patent publication US20110130386A1, “DNA-PK INHIBITORS” (priority 2008, published 2011).
